Read-outs that look alike come from different tables or passages of the source.
Test: Bioactivation studies in rat liver S9 fraction
Assay type: in vitro ADME
Settings: rat liver S9 1 mg/mL; for remaining at 1 h, 5 µM: Sprague-Dawley, rat, liver S9 fraction, read-out: SP-8356 (% Remaining at 60 min)
Method: SP-8356 was incubated with 1 mg/mL rat liver S9 fraction in 0.1 M potassium phosphate buffer (pH 7.4) in the absence and presence of GSH, AA, NADPH, UDPGA, PAPS and SAM. The final reaction mixture contained 5 µM SP-8356, 8 mM MgCl2, 25 µg/mL alamethicin and 1 mM cofactor in final volume of 160 µL. The reaction was initiated by adding a 10 mM cofactor solution prepared in 0.1 M potassium phosphate buffer (pH 7.4), following a 5 min preincubation of the incubation mixture at 37 °C. The final study groups were as follows: no cofactor (control), AA, NADPH, GSH, GSH + AA, GSH + NADPH and GSH + UDPGA + PAPS + SAM. The reaction was quenched at (0 and 60) min by adding 160 µL of ice-cold acetonitrile containing HSDH (1 µg/mL). Following a brief vortexing and sonication, the mixtures were centrifuged at 3,000 rpm at 4 °C for 20 min. The supernatant mixed with the same volume of deionized water on an Agilent 96-well plate was analyzed by Agilent 6530 Q-TOF LC-MS/MS system equipped with dual AJS ESI ion source and Agilent 1200 series HPLC system, as follows.
Chromatographic separation was performed on a Phenomenex Kinetex C18 column (50 mm × 2.1 mm, 2.6 µm) (USA) with 0.1 vol.% formic acid in deionized water (A) and 0.1 vol.% formic acid in acetonitrile (B) running at 0.45 mL/min in the following gradient elution: 2 vol.% B for the initial 2 min, linear gradient to 95 vol.% B for 1 min and maintaining 95 vol.% B for 5 min. The injection volume was 5 μL and the column temperature was set at 50 °C. The ion source and mass analyzer parameters of the mass spectrometer were the same as in Section 4.4. LC-MS chromatograms and mass spectra were extracted using Agilent MassHunter Qualitative Analysis software (version B.05.00) (Santa Clara, CA, USA).

remaining at 1 h, 5 µM (pH 7.4, cofactors: AA (1 mM)): 106 ± 2.6%
remaining at 1 h, 5 µM (pH 7.4, cofactors: GSH (1 mM)): 29.1 ± 6.9%
remaining at 1 h, 5 µM (pH 7.4, cofactors: GSH + AA): 92.1 ± 1.7%
remaining at 1 h, 5 µM (pH 7.4, cofactors: GSH + NADPH): 18 ± 1.9%
remaining at 1 h, 5 µM (pH 7.4, cofactors: GSH + UDPGA + PAPS + SAM): 1.3 ± 0.2%
remaining at 1 h, 5 µM (pH 7.4, cofactors: NADPH (1 mM)): 21.6 ± 2%
remaining at 1 h, 5 µM (pH 7.4, cofactors: None): ~20%
SP-8356 (% Remaining at 60 min) (cofactors: None, 5 μM): 20.3 ± 1.9%
SMILES: COc1cc(/C=C/C2=CC(=O)[C@H]3C[C@@H]2C3(C)C)cc(O)c1O [SP-8356, (1S,5R)-4-((E)-3,4-dihydroxy-5-methoxystryryl)-6,6-dimethylbicylco[3.1.1]hept-3-en-2-one]

— paper PMC7221793, “Metabolism and Pharmacokinetics of SP-8356, a Novel (1S)-(−)-Verbenone Derivative, in Rats and Dogs and Its Implications in Humans” (Molecules, 2020)
